Converted amounts (≈) assume the structure as drawn.
Assays:
[1] = target: T1, Catechol O-methyltransferase (Homo sapiens, UniProt P21964); test: Inhibition of recombinant wild-type human COMT expressed in Escherichia coli BL21 using 4-nitrocatechol-Alexa488 as substrate in presence of cofactor SAM preincubated for 1 min followed by substrate addition and measured every 60 sec up to 180 times by fluorescence based microtiter plate reader analysis
T1 sequence (P21964 whole entry): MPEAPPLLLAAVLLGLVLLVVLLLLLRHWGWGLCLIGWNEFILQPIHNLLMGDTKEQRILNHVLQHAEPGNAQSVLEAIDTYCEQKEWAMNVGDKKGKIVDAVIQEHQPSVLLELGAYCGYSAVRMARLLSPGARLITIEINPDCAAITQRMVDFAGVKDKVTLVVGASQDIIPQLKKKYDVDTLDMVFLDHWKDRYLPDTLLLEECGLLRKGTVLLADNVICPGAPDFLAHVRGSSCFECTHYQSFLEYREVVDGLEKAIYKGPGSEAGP

[2] = Solubility of compound; assay type: physicochemical
[3] = Distribution coefficient, log D of compound in octanol and water at pH 7.4; assay type: physicochemical

Row | Structure (SMILES) | IC50 [1] [nM] | solubility [2] [µg/mL] | logD [3]
1 | Cc1nc(-c2ccccc2)sc1-c1cc[nH]n1 | 24000 |  | 
2 | c1ccc(-c2ncc(-c3cc[nH]n3)s2)cc1 | > 625000 |  | 
3 | COc1ccc(Cc2cc(-c3sc(C)nc3C)n[nH]2)cc1 | 1000 | 2 (≈ 6.68 µM) | 3.7
4 | CCc1cc(-c2sc(C)nc2C)n[nH]1 | 20000 |  | 2.6
5 | Cc1nc(C2CC2)c(-c2cc[nH]n2)s1 | > 625000 |  | 
6 | CCc1nc(C)c(-c2cc[nH]n2)s1 | 21000 |  | 
7 | COc1ccc([C@H](C)c2cc(-c3sc(C)nc3C)n[nH]2)cc1 | 860 | 5 (≈ 16 µM) | 3.9
8 | Cc1nc(Cc2ccccc2)sc1-c1cc[nH]n1 | > 425000 |  | 
9 | COc1ccc(C2(c3cc(-c4sc(C)nc4C)n[nH]3)CC2)cc1 | 75 | 2 (≈ 6.15 µM) | 4.1
10 | Cc1ccc(-c2nc(C)c(-c3cc[nH]n3)s2)cc1 | 11000 |  | 
11 | Cc1nc(C)c(-c2cc(Cc3ccc(-c4cnn(C)c4)cc3)[nH]n2)s1 | 1300 | 4 (≈ 11.4 µM) | 3.9
12 | COc1ccc([C@@H](C)c2cc(-c3sc(C)nc3C)n[nH]2)cc1 | 470 | 5 (≈ 16 µM) | 4

Second part, the compound after the results:

Row | IC50 [1] [nM] | solubility [2] [µg/mL] | logD [3] | Structure (SMILES)
13 | 2000 | 15 (≈ 55.7 µM) | 3.6 | Cc1nc(C)c(-c2cc(Cc3ccccc3)[nH]n2)s1
14 | 21000 | 24 (≈ 80.7 µM) | 4.3 | CCC(c1ccccc1)c1cc(-c2sc(C)nc2C)n[nH]1 (stereo not given)
15 | 130000 |  |  | Cc1nc(C)c(-c2cc(-c3ccccc3)[nH]n2)s1
16 | 700 | 5 (≈ 17.6 µM) | 4 | Cc1nc(C)c(-c2cc([C@H](C)c3ccccc3)[nH]n2)s1
17 | 1100 |  |  | Cc1nc(C)c(-c2cc([C@@H](C)c3ccccc3)[nH]n2)s1
18 | 210 | 1 (≈ 3.39 µM) | 4.2 | Cc1nc(C)c(-c2cc(C3(c4ccccc4)CC3)[nH]n2)s1
19 | 900 | 3 (≈ 10.6 µM) | 3.9 | Cc1nc(C)c(-c2cc(C(C)c3ccccc3)[nH]n2)s1 (stereo not given)
20 | 3200 |  |  | Cc1nc(C)c(-c2cc(Cc3ccc(-c4ccccc4)cc3)[nH]n2)s1
21 | 8000 | 4 (≈ 14.1 µM) | 4 | Cc1nc(C)c(-c2cc(CCc3ccccc3)[nH]n2)s1
22 | 1100 | 4 (≈ 13.4 µM) | 4.1 | Cc1nc(C)c(-c2cc(C(C)(C)c3ccccc3)[nH]n2)s1
23 | 34000 | 8 (≈ 26.9 µM) | 4.4 | Cc1nc(C)c(-c2cc(CCCc3ccccc3)[nH]n2)s1
